Measurements reported in patent EP0150787A2, “Compound having antibronchopneumopathic activity, process for its preparation and pharmaceutical compositions containing it” (PULITZER ITALIANA S.p.A., priority 1984, dated 1985).
Read-outs that look alike come from different tables or passages of the source.

Assays:
[1] = Acute toxicity, oral route, method of Litchfield and Wilcoxon; conditions: in vivo, os
Source text: The acute toxicity of PU 163 has been determined in the mouse and in the rat by the oral route accor ding to the method of Litchfield and Wilcoxon (J. Pharm. Exp. Therap. 1949, 96, 99).

trachea ciliate cells = experiment: Ciliary motility in the dog's trachea in vitro (transit speed of a charcoal bolus); assay type: cell-based; conditions: for SPEED OF CHARCOAL PARTICLES 5 Minutes mm/min. x̄ ± ES / SPEED OF CHARCOAL PARTICLES 10 Minutes mm/min x̄ ± ES / SPEED OF CHARCOAL PARTICLES 20 Minutes mm/min. x̄ ± ES / activation at 100 µg/mL: 10^-4 g/ml; for activation at 100 µg/mL: Canis lupus familiaris; for SPEED OF CHARCOAL PARTICLES Basal mm/min. x̄ ± ES: group later treated with 10^-4 g/ml
Source text: The mucolytic activity of many products is due in that they induce an increase of motility in the trachea ciliate cells.
The method hereinafter described allows to assess "in vitro" if a compound increases, or not, the motility of said cells. The method is based on the measurement of the transit speed of a charcoal bolus in a section of trachea.
The method used is that described by J.E. Lightowler and N.H. Lightowler (Arch. Int. Pharmacodyn. 189, 53-58, 1971) and uses an apparatus similar to that described by T. Dalhamn (Acta Physiol. Scand. Suppl. 123, 1956).

rat = experiment: Bronchosecretogogue activity (Mawatari test, bronchial elimination of sodium fluorescein); assay type: in vivo; conditions: 50 mg/kg i.p. (table head; text: oral route), percent increase of bronchial elimination
Source text: The bronchosecretogogue activity of PU 163 and, as a comparison, of Ambroxol has been determined in the rat using the method described by Mawatari ("Experimental Studies on the Expectorant Action of Several Drugs", Kagoshima Daigaku Igaku Zasshi, 27, 561, 1976). […] After the animals'sacrifice, the evaluation of the amound of sodium fluorescein present at the bronchial level has been carried out. The results obtained, reported in the Table 3, are expressed as percent increase of the bronchial elimination of sodium fluorescein of the groups treated with Ambroxol and PU 163 in comparison with a control group.

alveolar surfactant = experiment: Activity on the alveolar surfactant (static volume-pulmonary pressure curves); assay type: in vivo; conditions: rat, 50 mg/kg p.o.
Protocol: This test allow to verify if a compound can modi fy the surfaces of lung alveoli, as there are pathological conditions in which a superficial firm is produced in the alveoli which, as time goes on, can produce foam in the bronchi, making the respiration difficult. In order to assess this kind of activity, the method described by Curty P.C. (Arzneim. Forsch. Drug. Res., 24, 847, 1974) is used. According to said method the volume and the pressure after insufflation in the rat's lung, are measured. […] After sacrifice, and after the trachea incan nulation, the respiratory apparatus has been extracted from the thoracic cavity and the static cur ves of volume-pulmonary pressure.

[2] = system: pulmonary emphysema induced in the guinea pig; experiment: Pulmonary emphysema induced by intratracheal porcine pancreatic elastase; assay type: in vivo; conditions: 50 mg/kg i.p. 1 hour after the elastase injection
Protocol: The ability of PU 163 of antagonizing the pulmonary emphysema induced in the guinea pig by intratracheal injection of 0.1 mg of porcine pancrea tic elastase has been evaluated in comparison with Ambroxol, according to the method described by Stone P.J. et al. (Am. Rev. Resp. Dis. 124/1, 56-59; 1981). Both compounds have been administered by the i.p. route at the equiponderant dose of 50 mg/kg 1 hour after the elastase injection.

[3] = system: chronic bronchitis induced by inhalation of SO in the rat; experiment: Chronic bronchitis induced by SO2 inhalation; assay type: in vivo; conditions: 50 mg/kg by gastric tube
Source text: The action of PU 163 in comparison with Ambroxol on the chronic bronchitis induced by inhalation of SO in the rat has been evaluated according to the method described by Quevauvillier e coll. (Therapie, XXII; 185-193; 1967). […] The efficacy of […] been evaluated in function of the regression degree of the pulmonary lesions induced by […] inhalation.

[4] = Pharmacokinetics and organ distribution by HPLC; assay type: in vivo; conditions: rat, oral route, equimolar dose corresponding to 50 mg/kg of Ambroxol base
Protocol: The pharmacokynetics behaviour and the distribu tion in the organs of PU 163, in comparison to Ambroxol, has been determined in the rat after ad ministration by the oral route of equimolar doses, corresponding to 50 mg/kg of Ambroxol base.

elastase = experiment: Elastase inhibition (method of R.M. Senior); assay type: biochemical
Source text: The inhibiting activity of PU 163 and of Ambroxol on elastase has been measured according to the method described by R.M. Senior (Plenum Press. New York; 249-254; 1977).

[5] = 5 min, 5 minutes, read-out: SPEED OF CHARCOAL PARTICLES 5 Minutes % Δ vs.Bas. x̄ ± ES
[6] = 10 min, 10 minutes, * p <0.05, read-out: SPEED OF CHARCOAL PARTICLES 10 Minutes % Δ vs.Bas. x̄ ± ES
[7] = 20 min, 20 minutes, ** p <0.01, read-out: SPEED OF CHARCOAL PARTICLES 20 Minutes % Δ vs.Bas. x̄ ± ES

For `O=C(Nc1c(Br)cc(Br)cc1CN[C@H]1CC[C@H](O)CC1)c1cccs1` [PU 163, 4-/ /(2-(2-thenoyl)-amino-3,5-dibromophenyl)-methyl/amino/cy-clohexanol], the LD50 ([1]; mouse) was over 2500 mg/kg, the LD50 ([1]; rat) was over 5000 mg/kg and the “SPEED OF CHARCOAL PARTICLES 5 Minutes mm/min. x̄ ± ES” value (trachea ciliate cells; 5 minutes) was 8.7 ±2.82 mm/min. The “SPEED OF CHARCOAL PARTICLES 10 Minutes mm/min x̄ ± ES” value (trachea ciliate cells; 10 minutes) was 10.2 ±2.02 mm/min, the “SPEED OF CHARCOAL PARTICLES 20 Minutes mm/min. x̄ ± ES” value (trachea ciliate cells; 20 minutes) was 11.5 ±2.38 mm/min and the activation at 100 µg/mL (trachea ciliate cells; [5]) was 24.3 ± 7.8%. The activation at 100 µg/mL (trachea ciliate cells; [6]) was 45.7%, the activation at 100 µg/mL (trachea ciliate cells; [7]) was 64.3% and the “SPEED OF CHARCOAL PARTICLES Basal mm/min. x̄ ± ES” value (trachea ciliate cells) was 7.00 ±1.40 mm/min. The “SODIUM FLUORESCEIN % vs. control” value (rat) was 39.3%, the “Internal pulmonary pressure (cm. H2O)” value (alveolar surfactant; de-insufflation, 0.5 cm^3) was 0.35 cm. H2O and the “Internal pulmonary pressure (cm. H2O)” value (alveolar surfactant; de-insufflation, 1 cm^3) was 1.4 cm. H2O. For the same compound, the “Internal pulmonary pressure (cm. H2O)” value (alveolar surfactant; de-insufflation, 1.5 cm^3) was 2.5 cm. H2O, the “Internal pulmonary pressure (cm. H2O)” value (alveolar surfactant; de-insufflation, 2 cm^3) was 3.9 cm. H2O and the “Internal pulmonary pressure (cm. H2O)” value (alveolar surfactant; de-insufflation, 2.5 cm^3) was 5.2 cm. H2O. For the same compound, the “Internal pulmonary pressure (cm. H2O)” value (alveolar surfactant; de-insufflation, 3 cm^3) was 6.75 cm. H2O, the “Internal pulmonary pressure (cm. H2O)” value (alveolar surfactant; insufflation, 0.5 cm^3) was 2.2 cm. H2O and the “Internal pulmonary pressure (cm. H2O)” value (alveolar surfactant; insufflation, 1 cm^3) was 3.8 cm. H2O. The “Internal pulmonary pressure (cm. H2O)” value (alveolar surfactant; insufflation, 1.5 cm^3) was 5.35 cm. H2O, the “Internal pulmonary pressure (cm. H2O)” value (alveolar surfactant; insufflation, 2 cm^3) was 6.5 cm. H2O and the “Internal pulmonary pressure (cm. H2O)” value (alveolar surfactant; insufflation, 2.5 cm^3) was 7.6 cm. H2O. The “Internal pulmonary pressure (cm. H2O)” value (alveolar surfactant; insufflation, 3 cm^3) was 8.45 cm. H2O, the “Internal pulmonary pressure (cm. H2O)” value (alveolar surfactant; insufflation, 3.5 cm^3) was 9 cm. H2O and the “activity of reducing emphysema” value [2] was “high activity of reducing emphysema”. The “percent regression (lesions degrees)” value [3] was 62%, the “concentrations in the organs (pulmonary level)” value [4] was “larger amounts of Ambroxol at the pulmonary level” and the “plasma concentrations as Ambroxol” value ([4]; compared with Ambroxol treated group) was “detected at prolonged times”.

In the case of `Nc1c(Br)cc(Br)cc1CN[C@H]1CC[C@H](O)CC1` [Ambroxol, 4-/ /(2-amino-3,5-dibromophenyl)-methyl/amino/cyclohexanol, reference compound], the LD50 ([1]; mouse) is reported as over 2500 mg/kg, the LD50 ([1]; rat) is reported as over 5000 mg/kg and the “SPEED OF CHARCOAL PARTICLES 5 Minutes mm/min. x̄ ± ES” value (trachea ciliate cells; 5 minutes) is reported as 8.2 ±2.12 mm/min. For the same compound, the “SPEED OF CHARCOAL PARTICLES 10 Minutes mm/min x̄ ± ES” value (trachea ciliate cells; 10 minutes) was 9.5 ±1.62 mm/min, the “SPEED OF CHARCOAL PARTICLES 20 Minutes mm/min. x̄ ± ES” value (trachea ciliate cells; 20 minutes) was 10.2 ±2.31 mm/min and the activation at 100 µg/mL (trachea ciliate cells; [5]) was 28.1 ± 3.54%. The activation at 100 µg/mL (trachea ciliate cells; [6]) was 57.6%, the activation at 100 µg/mL (trachea ciliate cells; [7]) was 59.4% and the “SPEED OF CHARCOAL PARTICLES Basal mm/min. x̄ ± ES” value (trachea ciliate cells) was 6.4 ±1.30 mm/min. The “SODIUM FLUORESCEIN % vs. control” value (rat) was 32.1%, the “Internal pulmonary pressure (cm. H2O)” value (alveolar surfactant; de-insufflation, 0.5 cm^3) was 0.25 cm. H2O and the “Internal pulmonary pressure (cm. H2O)” value (alveolar surfactant; de-insufflation, 1 cm^3) was 1.1 cm. H2O. For the same compound, the “Internal pulmonary pressure (cm. H2O)” value (alveolar surfactant; de-insufflation, 1.5 cm^3) was 2.3 cm. H2O, the “Internal pulmonary pressure (cm. H2O)” value (alveolar surfactant; de-insufflation, 2 cm^3) was 3.3 cm. H2O and the “Internal pulmonary pressure (cm. H2O)” value (alveolar surfactant; de-insufflation, 2.5 cm^3) was 4.6 cm. H2O. The “Internal pulmonary pressure (cm. H2O)” value (alveolar surfactant; de-insufflation, 3 cm^3) was 6.1 cm. H2O, the “Internal pulmonary pressure (cm. H2O)” value (alveolar surfactant; insufflation, 0.5 cm^3) was 2.45 cm. H2O and the “Internal pulmonary pressure (cm. H2O)” value (alveolar surfactant; insufflation, 1 cm^3) was 4.1 cm. H2O. For the same compound, the “Internal pulmonary pressure (cm. H2O)” value (alveolar surfactant; insufflation, 1.5 cm^3) was 5.6 cm. H2O, the “Internal pulmonary pressure (cm. H2O)” value (alveolar surfactant; insufflation, 2 cm^3) was 6.9 cm. H2O and the “Internal pulmonary pressure (cm. H2O)” value (alveolar surfactant; insufflation, 2.5 cm^3) was 7.9 cm. H2O. For the same compound, the “Internal pulmonary pressure (cm. H2O)” value (alveolar surfactant; insufflation, 3 cm^3) was 8.7 cm. H2O, the “Internal pulmonary pressure (cm. H2O)” value (alveolar surfactant; insufflation, 3.5 cm^3) was 9.3 cm. H2O and the “percent regression (lesions degrees)” value [3] was 38%. The “inhibiting activity on elastase” value (elastase) was “practically inactive”.
